The values below come from ChEMBL document CHEMBL1201862, “PubChem BioAssay data set” (2004).

Among the test systems are DLD-1; CAKI-1; OVCAR-3; IGROV-1; ACHN; A549; SW-620; MOLT-4; SF-268; A498; UACC-257; NCI-H226; HT-29; OVCAR-4; SK-MEL-5; KM12; HOP-92; NCI/ADR-RES; MDA-N; RXF 393.
Holding throughout (experiment): DTP human tumour cell line panel, 48 h

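Five concentrations, 48 hours, 96-well plates. GI50 is the concentration that inhibits growth by half.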 The source made the active and inactive calls. No stated cut-off is given here; in the data, active = GI50 up to about 1.1 µM and inactive = higher.

`CCCCC#COP(=O)(OCC)OCC`: the GI50 in the assay with DLD-1, with CAKI-1, in the assay on OVCAR-3, with IGROV-1, in the assay on ACHN and with A549 was > 100 µM (inactive) each time. For the same molecule, the GI50 in the assay on SW-620, in the assay on MOLT-4, with SF-268, in the assay with A498, in the assay on UACC-257 and with NCI-H226 was > 100 µM (inactive) throughout. The GI50 with HT-29, in the assay with OVCAR-4, in the assay on SK-MEL-5 and with KM12 was > 100 µM (inactive) in each case.

As for `COc1ccc2c(c1)NC1(O)c3ccccc3C(=O)C21O` (stereo not given), the GI50 in the assay with DLD-1, with CAKI-1, in the assay on OVCAR-3, with IGROV-1, in the assay with ACHN and in the assay on A549 was > 100 µM (inactive) in each case. The GI50 in the assay with SW-620, with MOLT-4, in the assay on SF-268, with A498, with UACC-257 and in the assay with NCI-H226 was > 100 µM (inactive) in each case. Also, the GI50 with HT-29, with SK-MEL-5, in the assay on HOP-92 and in the assay with KM12 was > 100 µM (inactive) each time.

`COC(=N)c1csc(C2OC(CO)C(O)C2O)n1` (stereo not given): the GI50 (commonly the concentration at which growth is held to half of that of the control) in the assay with DLD-1 was 83.9 µM (inactive); in the assay with CAKI-1, > 100 µM (inactive); in the assay with OVCAR-3 it was > 100 µM (inactive); in the assay on IGROV-1, > 100 µM (inactive); with ACHN, > 100 µM (inactive); in the assay on A549, > 100 µM (inactive). For the same molecule, the GI50 with SW-620 was > 100 µM (inactive); in the assay with MOLT-4, 61.9 µM (inactive); with SF-268, > 100 µM (inactive); with A498, > 100 µM (inactive); with UACC-257, > 100 µM (inactive); with NCI-H226 it was > 100 µM (inactive). The GI50 with HT-29, with OVCAR-4, in the assay on HOP-92 and in the assay on KM12 was > 100 µM (inactive) in each case.

For `O=C(Nc1nncs1)NS(=O)(=O)n1cnc2ccccc21`, the GI50 in the assay with CAKI-1, with OVCAR-3, in the assay on IGROV-1, with NCI/ADR-RES, in the assay with ACHN and in the assay on A549 was > 100 µM (inactive) in each case. The GI50 in the assay on SW-620, in the assay on MOLT-4, with MDA-N, in the assay with SF-268, in the assay with A498 and in the assay with UACC-257 was > 100 µM (inactive) each time. The GI50 in the assay on NCI-H226, in the assay on HT-29, in the assay with RXF 393, in the assay on OVCAR-4, with SK-MEL-5 and in the assay with HOP-92 was > 100 µM (inactive) in each case. Besides, the GI50 in the assay on KM12 was > 100 µM (inactive).

In the case of `CC(=O)OC1=c2ccccc2=C(O)C2C1C=NN2C(C)=O` (stereo not given), the GI50 with CAKI-1 is > 100 µM (inactive); with OVCAR-3, > 100 µM (inactive); in the assay with IGROV-1, 99.3 µM (inactive); with NCI/ADR-RES, > 100 µM (inactive); with ACHN it was > 100 µM (inactive); with A549, > 100 µM (inactive). Also, the GI50 with SW-620, in the assay on MOLT-4, with MDA-N, in the assay with SF-268, in the assay with A498 and with UACC-257 was > 100 µM (inactive) throughout. The GI50 in the assay on NCI-H226, in the assay with HT-29, in the assay with RXF 393, in the assay on OVCAR-4, with SK-MEL-5 and in the assay with HOP-92 was > 100 µM (inactive) each time. The GI50 in the assay on KM12 is > 100 µM (inactive).

As to `CN(C)CCNS(=O)(=O)c1ccc(N)cc1`, the GI50 was > 100 µM (inactive) with CAKI-1; 17.2 µM (inactive) with OVCAR-3; > 100 µM (inactive) with IGROV-1; > 100 µM (inactive) in the assay with NCI/ADR-RES; > 100 µM (inactive) in the assay on ACHN; > 100 µM (inactive) with A549. In addition, the GI50 in the assay with SW-620, in the assay with MOLT-4, in the assay with MDA-N, in the assay on SF-268, in the assay with A498 and in the assay with UACC-257 was > 100 µM (inactive) in each case. Moreover, the GI50 in the assay on NCI-H226, in the assay with HT-29, in the assay with RXF 393, in the assay with OVCAR-4, in the assay on SK-MEL-5 and in the assay with HOP-92 was > 100 µM (inactive) throughout. Besides, in the assay on KM12, the GI50 was > 100 µM (inactive).

On to `CCc1cccc(C(C)C)c1NC(=O)C(=O)C1C(=O)Nc2ccccc2[S+]1[O-]` (stereo not given), for which the GI50 in the assay on CAKI-1 is > 100 µM (inactive); in the assay with OVCAR-3 it was > 100 µM (inactive); with IGROV-1 it was 38.9 µM (inactive); with NCI/ADR-RES, > 100 µM (inactive); in the assay with ACHN, > 100 µM (inactive); in the assay with A549, > 100 µM (inactive). Also, the GI50 with SW-620, in the assay on MOLT-4, in the assay on MDA-N, in the assay with SF-268, in the assay on A498 and with UACC-257 was > 100 µM (inactive) each time. Further, the GI50 was > 100 µM (inactive) in the assay on NCI-H226; > 100 µM (inactive) with HT-29; 56.1 µM (inactive) in the assay on RXF 393; > 100 µM (inactive) in the assay on OVCAR-4; > 100 µM (inactive) in the assay on SK-MEL-5; > 100 µM (inactive) in the assay on HOP-92. The GI50 with KM12 is > 100 µM (inactive).

For the molecule `CC(C)[Si](OC1=CCCCCC12C(=O)N(C)c1ccccc12)(C(C)C)C(C)C` (stereo not given), the GI50 is 16.5 µM (inactive) in the assay with CAKI-1; 16.3 µM (inactive) with OVCAR-3; 25.1 µM (inactive) in the assay with IGROV-1; 18.8 µM (inactive) in the assay with NCI/ADR-RES; 16.8 µM (inactive) in the assay with ACHN; 19.8 µM (inactive) in the assay on A549. Moreover, the GI50 was 17.3 µM (inactive) with SW-620; 32.5 µM (inactive) in the assay on MOLT-4; 28.4 µM (inactive) in the assay on MDA-N; 18.4 µM (inactive) with SF-268; 15.8 µM (inactive) in the assay on A498; 14.9 µM (inactive) with UACC-257. Besides, the GI50 is 20.2 µM (inactive) in the assay on NCI-H226; 20.5 µM (inactive) in the assay with HT-29; 8.77 µM (inactive) with RXF 393; 24.7 µM (inactive) in the assay with OVCAR-4; 17.5 µM (inactive) with SK-MEL-5; 16.5 µM (inactive) in the assay on HOP-92. The GI50 in the assay on KM12 was 18.5 µM (inactive).

For `COC12C=CC(CC1)C(C)(C)C2=O` (stereo not given), the GI50 in the assay on CAKI-1, in the assay on OVCAR-3, in the assay on IGROV-1, with NCI/ADR-RES, in the assay with ACHN and with A549 was > 100 µM (inactive) throughout. For the same molecule, the GI50 in the assay on SW-620, in the assay on MOLT-4, in the assay on MDA-N, with SF-268, in the assay with A498 and in the assay on UACC-257 was > 100 µM (inactive) throughout. In addition, the GI50 with NCI-H226, with HT-29, in the assay on RXF 393, with OVCAR-4, in the assay with SK-MEL-5 and in the assay on HOP-92 was > 100 µM (inactive) in each case. Also, the GI50 in the assay with KM12 is > 100 µM (inactive).

Consider `N#CC(N)c1ccc(OCCCCCCCCCCOc2ccc(C(N)C#N)cc2)cc1` (stereo not given), for which the GI50 was > 100 µM (inactive) in the assay on CAKI-1; > 100 µM (inactive) with OVCAR-3; > 100 µM (inactive) with IGROV-1; 27.8 µM (inactive) in the assay with NCI/ADR-RES; > 100 µM (inactive) with ACHN; > 100 µM (inactive) with A549. The GI50 in the assay on SW-620 is > 100 µM (inactive); in the assay on MOLT-4, 18.6 µM (inactive); in the assay on MDA-N, > 100 µM (inactive); in the assay with SF-268, > 100 µM (inactive); with A498, > 100 µM (inactive); in the assay with UACC-257 it was > 100 µM (inactive). The GI50 with NCI-H226 is > 100 µM (inactive); in the assay with HT-29 it was > 100 µM (inactive); in the assay on RXF 393, 43.2 µM (inactive); with OVCAR-4 it was > 100 µM (inactive); in the assay on SK-MEL-5 it was > 100 µM (inactive); with HOP-92, > 100 µM (inactive). The GI50 in the assay on KM12 was > 100 µM (inactive).

With `O=C1c2cccnc2C(=O)c2c1nc1ccccc1c2-c1ccc2c3c(nc4ccccc42)C(=O)c2cccnc2-c13`, the GI50 was 1.75 µM (inactive) in the assay on CAKI-1; 0.244 µM (active) in the assay with OVCAR-3; 0.0728 µM (active) with IGROV-1; 1.45 µM (inactive) with NCI/ADR-RES; 0.383 µM (active) in the assay on ACHN; 2.17 µM (inactive) in the assay with A549. The concentration for 50% growth inhibition (GI50) is 0.268 µM (active) in the assay with SW-620; 0.638 µM (active) in the assay with MOLT-4; 2.13 µM (inactive) in the assay on MDA-N; 0.52 µM (active) in the assay on SF-268; 2.69 µM (inactive) in the assay on A498; 2.04 µM (inactive) in the assay on UACC-257. Also, the GI50 in the assay with NCI-H226 is 0.859 µM (active); in the assay with HT-29, 2.38 µM (inactive); in the assay on RXF 393, 0.838 µM (active); in the assay on OVCAR-4, 1.08 µM (active); in the assay on SK-MEL-5, 0.467 µM (active); in the assay with HOP-92 it was 10.5 µM (inactive). Also, in the assay with KM12, the GI50 is 0.971 µM (active).
